Results on two compounds are retold here after patent publication US5859012A, “Inhibitors of farnesyl-protein transferase” (Merck & Co., Inc., priority 1997, dated 1999).

Where a name gives a salt, the structure may show the parent alone.

The target of the assay is T1, human FPTase (Homo sapiens, UniProt P49354+P49356).
T1 construct: made in house
The assay is described as follows: In vitro inhibition of ras farnesyl transferase (human FPTase assay, [3H]-FPP incorporation into Ras-CVIM). In kind it is biochemical. Conditions: 100 nM Ras-CVIM, 30 min, read-out: IC50, inhibitory activity against human FPTase.

Take `N#Cc1ccc(Cn2cncc2CN2CCN(c3cccc(Cl)c3)C(=O)C2=O)cc1` [Example 1, 4-[1-(4-Cyanobenzyl)-5-imidazolylmethyl]-1-(3-chlorophenyl)-piperazine-2,3-dione hydrochloride]: the half-inhibitory concentration (IC50) (commonly the concentration needed to halve the response being measured) is not above 10 µM.
Consider `CCCC[C@H]1CN(c2cccc(C)c2C)C(=O)C(=O)N1Cc1cncn1Cc1ccc(C#N)cc1` [Example 2, (S)-5-n-butyl-4-[1-(4-cyanobenzyl)-5-imidazolylmethyl]-1-(2,3-dimethylphenyl)-2,3-piperazinedione hydrochloride], for which the half-maximal inhibitory concentration (IC50) is not above 10 µM.
